Assay results taken from patent US12268747B2, “Polypeptides having anti-senescent effects and uses thereof” (OneSkin, Inc., priority 2019, dated 2025).
Peptide text beside a SMILES is read from it.

Legend:
[1] = test system: Caenorhabditis elegans; experiment: C. elegans healthspan and lifespan; assay type: in vivo; conditions: 1 μM and 2 μM, no decrease in worm movement at either time point
Protocol: Senotherapeutic strategies can be linked to healthspan and lifespan extension in vivo. In order to assess whether Peptide 14 promotes extended healthspan and lifespan, Caenorhabditis elegans worms were used. Peptide 14 was added in the worm media (M9 buffer media) at different concentrations of 1 μM or 2 μM. Negative control worms received vehicle only. Two healthspan parameters were assessed i) pharyngeal pumping and ii) worm movement. Lifespan was also determined. For pharyngeal pumping analysis, 15 worms had their pharynx movement (pumping) observed daily and counted for 20 seconds. This experiment was repeated 3 times, by 2 different blind observers, employing different populations of animals at different days. Statistical difference was detected by analyzing each individual time point by One-Way ANOVA and Dunnet's post hoc test. All groups were compared with the H2O group. For worm movement analysis, the basic movement of C. elegans, also called thrashing, was measured daily for 15 worms. […] Statistical difference was detected by analyzing each individual time point by One-Way ANOVA and Dunnet's post hoc, and all groups were compared with the H2O group. […] The average lifespan was measured. Statistical difference was detected by analyzing each individual time point by One-Way ANOVA and Dunnet's post hoc, and all groups were compared with the H2O group (FIG. 18).

[2] = test system: Human primary fibroblasts isolated from 3 healthy chronologically aged (elder) donors; experiment: 3-week exposure: SA-β-galactosidase senescence and proliferation; assay type: cell-based; conditions: 3.12 μM, counted at days 7, 14, 21, 28
Protocol: Human primary fibroblasts isolated from 3 healthy chronologically aged (elder) donors were used. These cells were cultured in DMEM (Dulbecco's Modified Eagle's Medium) supplemented with 10% v.v. fetal bovine serum (FBS), and 1% v.v. of penicillin/streptomycin solution (1,000 U·mL−1). Cells were kept in a 5% CO2, 37° C. and 95% humidity atmosphere. After expansion, these cells were seeded in T-75 flasks (250,000 cells per flask) and, 6 hours after plating, were incubated for 3 weeks (21 days) with Peptide 14 at 3.12 μM. A negative control comprised untreated cells, which received vehicle only. Day 0 was defined as the day cells started to be treated with Peptide 14. No Peptide 14 treatment was performed between days 21 and 28. Weekly, cellular senescence was assessed according to senescence associated β-galactosidase staining levels. Data was normalized to untreated group and plotted (FIG. 4, panel A). Cellular proliferation was also determined weekly. At days 7, 14, 21, and 28, cells were trypsinized and counted (FIG. 4, panel B). After counting, 250,000 cells were plated in new T-75 flasks. Three independent experiments (biological replicates) including three technical replicates were performed. Data was analyzed using T-test. Statistical significance was determined as p values equal or lower than 0.05.

[3] = test system: human primary fibroblasts isolated from 3 healthy donors, UVB exposed; experiment: UVB-induced senescence in fibroblasts; assay type: cell-based; conditions: 5 μM, 48 hours after UVB
Protocol: Cellular senescence may be caused by several different stimuli. In order to assess whether Peptide 14 was effective against UVB-induced and chemically-induced senescence, human primary fibroblasts isolated from 3 healthy donors were used. These cells were cultured in DMEM (Dulbecco's Modified Eagle's Medium) supplemented with 10% v.v. fetal bovine serum (FBS), and 1% v.v. of penicillin/streptomycin solution (1,000 U·mL−1). Cells were kept in a 5% CO2, 37° C. and 95% humidity atmosphere. After expansion, these cells were seeded in 96-well plates (4,000 cells per well) and, 6 hours after plating, were submitted to either etoposide (20 μM) treatment for 24 hours, or exposed twice to 0.05 J/cm^2 of UVB radiation. […] After incubation, relative cellular senescence (assessed by the activity of senescence associated β-galactosidase staining relative to untreated control) was analyzed and plotted in column graphs. ATRX foci were also assessed following ATRX immunofluorescence staining. Graphs were built using the average ATRX foci detected per nuclei. […] Data was analyzed using with either t-test or ANOVA followed by a Bonferroni post-hoc test. Statistical significance was determined as p-values equal or lower than 0.05 (FIG. 6).

[4] = test system: pAkt S473; experiment: Akt S473 phosphorylation western blot in human skin equivalents; assay type: cell-based; conditions: 1 μM, 5 days
Protocol: (§1) In order to shed light into the mechanism of action of Peptide 14 and similar Peptide 13, Akt S473 phosphorylation (FIG. 8, panel A), senescence associated β-galactosidase staining (FIG. 8, panel B), as well as mRNA expression (FIG. 8, panel C) were investigated. For Akt S473 phosphorylation analysis using western blotting, human primary fibroblasts and keratinocytes were used. These cells were used to build human skin equivalents, which were kept in a 5% CO2, 37° C. and 95% humidity atmosphere air liquid interface. Then, skin equivalents were treated with 1 μM of either Peptide 14 or Peptide 13 for 5 days, and protein analysis was performed on the skin equivalents. Protein was isolated and quantified. Equal amounts of protein were loaded in polyacrylamide gels and transferred into a nitrocellulose membrane. […] Relative pAkt S473/GAPDH signal was compared between treated and non-treated samples. For senescence associated B-galactosidase staining experiments, fibroblasts were used. […] Total RNA was isolated, samples were reverse transcribed, and mRNA expression of GAPDH, sirtuin 6 (SIRT6), BLM, and exonuclease 1 (EXO1) genes were determined using qPCR. […] CT values were analyzed using the 2^−ΔΔCt method. […] Data was analyzed using a T-test. Statistical significance was determined as p values equal or lower than 0.05 (FIG. 8).

[5] = test system: Primary fibroblasts isolated from 3 healthy chronologically aged patients; experiment: SA-B-galactosidase senescence in fibroblasts of aged donors, concentration series; assay type: cell-based, human; conditions: 1.56-50 μM (Peptide 16: 1.56-25 μM), 48 hours; in at least one of the tested concentrations
Protocol: Primary fibroblasts isolated from 3 healthy chronologically aged patients were used. Cells were cultured in DMEM (Dulbecco's Modified Eagle's Medium) supplemented with 10% v.v. fetal bovine serum (FBS), and 1% v.v. of penicillin/streptomycin solution (1,000 U·mL−1). Cells were kept in a 5% CO2, 37° C. and 95% humidity atmosphere. After expansion, these cells were seeded in 96-well plates (4,000 cells per well) and, 6 hours after plating the cells were treated with one of 4 senotherapeutic polypeptides (Peptide 14, Peptide 13, Peptide 15, and Peptide 16) and incubated for 48 hours. Each polypeptide was tested at 6 different concentrations: 50 μM, 25 μM, 12.5 μM, 6.25 μM, 3.12 μM, and 1.56 μM, except for Peptide 16, which was tested at 5 different concentrations: 25 μM, 12.5 μM, 6.25 μM, 3.12 μM, and 1.56 μM. A negative control comprised untreated cells, which received vehicle only. After incubation, relative cellular senescence (assessed by the activity of senescence associated B-galactosidase staining relative to untreated control) was analyzed (FIG. 2, panels A-D), in which the Y axis indicates the relative senescence levels normalized to untreated control. Each column corresponds to a different concentration of a polypeptide. Three independent experiments (biological replicates) including three technical replicates were performed. Data was analyzed using Analysis of Variance (ANOVA) and a Bonferroni post-hoc tests. Statistical significance was determined as p values equal or lower than 0.05.

[6] = test system: human skin equivalents from elder donors; experiment: Human skin equivalents: histology score and morphology (Example 18); assay type: cell-based; conditions: 0.01% w/v (or 1 μM), 5 days; vehicle control 21.00
Protocol: To test the effect of Peptide 13 and Peptide 14 treatment on human skin models and the skin morphology, human primary fibroblasts and keratinocytes isolated from healthy elder donors were used to build human skin equivalents. The skin equivalents were treated with 0.01% w/v (or 1 μM) of Peptide 13 or Peptide 14 for 5 days. The negative controls were treated with formulation only. After the 5-day culture, the skin equivalents were analyzed for epidermal thickness, which was quantified according to total epidermal area. Quality assessment based several parameters was performed by blind analysts. […] A minimal score of 19 was required for batch use. This score was validated internally and shown to decrease with age/senescence of the skin equivalents or cultured cells. Three independent experiments were performed with three technical replicates. Data were analyzed using a t-test. Statistical significance was determined as p-values equal or lower than 0.05. The statistically significant p-values are noted by * for p<0.05; ** for p<0.01; *** for p<0.001; **** for p<0.0001 between the groups.

[7] = test system: fibroblasts, UVB exposed; experiment: SA-B-galactosidase staining in UVB-exposed fibroblasts (Example 8); assay type: cell-based, human; conditions: 48 hours after UVB 2 x 0.05 J/cm^2
Protocol: as §1

[8] = test system: p16, BLIMP1, ZYG11B, IL-8, Ki-67, ZIC1, MMP1, HAS2 mRNA in 3D skin equivalents; experiment: 3D skin equivalents: relative mRNA expression of senescence, aging and health markers; assay type: cell-based, human
Protocol: 3D skin equivalent sections of samples built with cells from elder donors ([…]) were treated with 1 μM Peptide 14 or Peptide 13, or 20 μM Retinoic Acid (RA) and assessed for the effect of the various treatments of various markers of senescence, aging, and health.
Data are presented as 2-ddCt normalized to GAPDH and untreated control. *p<0.05. Peptide 13 and Peptide 14-treated samples generally had similar relative mRNA expression levels for p16, BLIMP1, ZYG11B, IL-8, and Ki-67 in the epidermal layer, and for p16, MMP1, HAS2, IL-8, and Ki-67 in the dermal layer. Peptide 13 and Peptide 14-treated samples generally had lower relative mRNA expression levels than RA-treated samples for p16, BLIMP1, ZYG11B, IL-8, in the epidermal layer and for p16, MMP1, IL-8, and Ki-67 in the dermal layer. Peptide 13 and Peptide 14-treated samples generally had higher relative mRNA expression levels than RA-treated samples for Ki-67 in the epidermal layer and for HAS2 for the dermal layer. Peptide 13 and Peptide 14-treated samples had similar relative mRNA expression levels as RA-treated samples for ZIC1 and Ki-67 for dermal layer.

[9] = 1 μM peptide vs 20 μM Retinoic Acid

Compound	toxicity to C. elegans (worm movement) [1]	cell proliferation vs untreated control [2]	cell number [3]	pAkt S473 in dermal samples [4]	pAkt S473 in epidermal samples [4]	relative cellular senescence (SA-B-galactosidase staining) vs untreated control [5]	mean of histology scores (maximum 28) [6]	SA-B-galactosidase staining in UVB-exposed samples [7]	relative mRNA, Peptide 13 vs Peptide 14: p16, BLIMP1, ZYG11B, IL-8, Ki-67 (epidermal); p16, MMP1, HAS2, IL-8, Ki-67 (dermal) ([8]; 1 μM each)	relative mRNA vs RA-treated samples: Ki-67 (epidermal), HAS2 (dermal) [8, 9]	relative mRNA vs RA-treated samples: ZIC1 and Ki-67 (dermal) [8, 9]	relative mRNA vs RA-treated samples: p16, BLIMP1, ZYG11B, IL-8 (epidermal); p16, MMP1, IL-8, Ki-67 (dermal) [8, 9]
CC[C@H](C)[C@H](NC(=O)CNC(=O)[C@H](CCCCN)NC(=O)[C@H](CC(C)C)NC(=O)[C@H](Cc1c[nH]c2ccccc12)NC(=O)[C@H](Cc1c[nH]cn1)NC(=O)[C@H](CCCCN)NC(=O)[C@H](C)NC(=O)[C@@H](NC(=O)[C@@H](N)CCC(=O)O)[C@@H](C)O)C(=O)O [Peptide 14, ETAKHWLKGI] (H-ETAKHWLKGI-OH; N-terminus and C-terminus assumed)	not toxic	No significant differences	did not significantly alter									
ATAKAWLKGI [Peptide 13]				decreased	dermal samples only	senotherapeutic effects	23.44	decreased staining	similar	higher	similar	lower
